This note sets out measurements from ChEMBL document CHEMBL1201862, “PubChem BioAssay data set” (2004).

Molecules are shown by their SMILES.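 Step 1: Grow cells in 96-well plates. Step 2: Expose to compound for 48 hours at 5 concentrations. Step 3: Interpolate endpoints linearly; if unreached, use highest concentration. At the GI50, growth is halved.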 Activity calls are given as the source filed them. Cut-off read from the data, not from the text of the source: active = GI50 up to about 1.1 µM and inactive = higher.

Holding throughout (experiment): growth of human tumour cells (NCI), 48 h
The test system of assay [1] is ACHN.
In assay [2] the test system is HL-60.
The subject of assay [3] is HOP-62.
Assay [4] concerns K562.
In assay [5] the test system is LOX IMVI.
Assay [6] deals with M14.
Assay [7] has as its system Malme-3M.
The test system of assay [8] is NCI-H23.
In assay [9] the test system is OVCAR-3.
The subject of assay [10] is RXF 393.
For assay [11], the system named is SF-295.
For assay [12], the system named is SF-539.
The subject of assay [13] is SK-MEL-28.
Assay [14] has as its system SK-MEL-2.
In assay [15] the test system is SK-OV-3.
The subject of assay [16] is SN12C.
Assay [17] concerns SNB-19.
Assay [18] has as its system SW-620.
Assay [19] concerns TK-10.
Assay [20] deals with UACC-257.

Consider `C=CCCCCCCCCCOC1C=CC(O)C(CO)O1` (centres undefined), for which the GI50 in assay [1] is 46.5 µM (inactive); in assay [2], 21.9 µM (inactive); in assay [3] it was 50.5 µM (inactive); in assay [4] it was 20.6 µM (inactive); in [5] it was 31.6 µM (inactive); in assay [6], 18.6 µM (inactive). Also, the GI50 was 28.1 µM (inactive) in [7]; 28.2 µM (inactive) in assay [8]; 38 µM (inactive) in assay [9]; 95.9 µM (inactive) in assay [10]; 66.2 µM (inactive) in [11]; 95.7 µM (inactive) in assay [12]. Further, the GI50 in [13] is 41.6 µM (inactive); in assay [14], 35.7 µM (inactive); in assay [15], 83.6 µM (inactive); in assay [16], 49.5 µM (inactive); in [17], 54.8 µM (inactive); in [18], 43.5 µM (inactive). Also, the GI50 is 36.7 µM (inactive) in [19] and 23.7 µM (inactive) in assay [20].
Regarding `CC(=O)C(CN(C)C)C(c1ccccc1)c1c(O)c2ccccc2oc1=O` (centres undefined), the GI50 in assay [1], in assay [2], in assay [3], in assay [4], in assay [5] and in assay [6] was > 100 µM (inactive) throughout. The GI50 in [7], in assay [8], in [9], in [10], in assay [11] and in [12] was > 100 µM (inactive) each time. The GI50 in assay [13], in assay [14], in assay [15], in assay [16], in assay [17] and in assay [18] was > 100 µM (inactive) throughout. Besides, the GI50 in assay [19] and in assay [20] was > 100 µM (inactive) throughout.
Take `O=C1Nc2ccccc2/C1=C1/Nc2ccccc2/C1=N/OCCOCCO`: the GI50 in assay [1] is 0.738 µM (active); in [2], 2.11 µM (inactive); in [3], 3.9 µM (inactive); in assay [4] it was 5 µM (inactive); in assay [5] it was 0.869 µM (active); in assay [6] it was 1.9 µM (inactive). The GI50 in assay [7] was 1.43 µM (inactive); in [8], 3.07 µM (inactive); in assay [9], 2.06 µM (inactive); in assay [10] it was 1.03 µM (active); in assay [11], 3.1 µM (inactive); in assay [12], 2.88 µM (inactive). The GI50 is 5.05 µM (inactive) in [13]; 0.644 µM (active) in [14]; 0.361 µM (active) in assay [15]; 2.69 µM (inactive) in assay [16]; 6.52 µM (inactive) in assay [17]; 1.82 µM (inactive) in [18]. Further, the GI50 was 1.86 µM (inactive) in assay [19] and 17.5 µM (inactive) in assay [20].
`CC(=O)OCCOCNC(=S)N/N=C(\C)c1cnc2ccccc2n1`: the GI50 in [1] is 11.5 µM (inactive); in assay [2], 15.9 µM (inactive); in [3], 86.3 µM (inactive); in [4], 43.4 µM (inactive); in [5], 38.6 µM (inactive); in assay [6], 36 µM (inactive). For the same compound, the GI50 in assay [7] was 40.6 µM (inactive); in assay [8], 72.8 µM (inactive); in assay [9] it was 16.8 µM (inactive); in [10] it was 33 µM (inactive); in assay [11], 57.9 µM (inactive); in assay [12], 55.8 µM (inactive). Also, the GI50 in assay [13] is 43.6 µM (inactive); in [14] it was 33.3 µM (inactive); in assay [15], 33.3 µM (inactive); in assay [16] it was 50.4 µM (inactive); in assay [17], 99.3 µM (inactive); in assay [18], 28.2 µM (inactive). Besides, the GI50 was > 100 µM (inactive) in [19] and 48.4 µM (inactive) in assay [20].
As for `CCOC(=O)/C=C/n1c2ccccc2c(=O)c2cc(OC)ccc21`, the GI50 in assay [1] was > 100 µM (inactive); in [2], > 100 µM (inactive); in assay [3], > 100 µM (inactive); in [4], > 100 µM (inactive); in [5] it was 20.7 µM (inactive); in assay [6] it was > 100 µM (inactive). Further, the GI50 is > 100 µM (inactive) in assay [7]; 57.1 µM (inactive) in assay [8]; > 100 µM (inactive) in assay [9]; > 100 µM (inactive) in assay [10]; > 100 µM (inactive) in assay [11]; > 100 µM (inactive) in assay [12]. In addition, the GI50 in assay [13] is > 100 µM (inactive); in [14] it was > 100 µM (inactive); in assay [15], > 100 µM (inactive); in [16] it was > 100 µM (inactive); in assay [17], 61.2 µM (inactive); in assay [19], 74.5 µM (inactive). Moreover, in assay [20], the GI50 is > 100 µM (inactive).
For the compound `C[C@]12CCC(=O)CC1CCCC2=O` (some centres undefined), the GI50 in assay [2], in assay [3], in assay [4], in assay [5], in assay [6] and in [7] was > 100 µM (inactive) each time. In addition, the GI50 in [8], in [9], in assay [10], in assay [11], in assay [12] and in [13] was > 100 µM (inactive) throughout. For the same compound, the GI50 in assay [14], in [15], in assay [16], in assay [17], in assay [18] and in assay [19] was > 100 µM (inactive) in each case. Moreover, in assay [20], the GI50 was > 100 µM (inactive).
As to `CC(=O)N1NC(c2ccccc2)=CC(=O)/C1=C/C(=O)c1ccccc1`, the GI50 is 77.3 µM (inactive) in assay [1]; 35.2 µM (inactive) in [2]; 88.1 µM (inactive) in assay [3]; 56 µM (inactive) in assay [4]; 40.9 µM (inactive) in [5]; 82.2 µM (inactive) in assay [6]. In addition, the GI50 was 37.6 µM (inactive) in assay [7]; > 100 µM (inactive) in assay [8]; 28.6 µM (inactive) in [9]; 24.2 µM (inactive) in assay [10]; 58.2 µM (inactive) in [11]; 32.1 µM (inactive) in assay [12]. In addition, the GI50 in [13] was > 100 µM (inactive); in assay [14], > 100 µM (inactive); in assay [15], > 100 µM (inactive); in [16], 82.8 µM (inactive); in [17], 58.7 µM (inactive); in assay [19] it was 48.8 µM (inactive). In addition, the GI50 in assay [20] is > 100 µM (inactive).
In the case of `CN1C/C(=C\c2ccc(C(=O)O)cc2)C(=O)/C(=C/c2ccc(C(=O)O)cc2)C1`, the GI50 in assay [1], in [2], in [3], in assay [4], in [5] and in assay [6] was > 100 µM (inactive) each time. For the same compound, the GI50 in assay [7], in assay [8], in [9], in assay [10], in assay [11] and in assay [12] was > 100 µM (inactive) each time. The GI50 in [13], in assay [14], in assay [15], in assay [16], in assay [18] and in assay [19] was > 100 µM (inactive) each time. In addition, the GI50 in assay [20] was > 100 µM (inactive).
`COC(=O)C1=C(OC)c2cc3c(cc2C(c2cc(OC)c(OC)c(OC)c2)C1C(=O)OC)OCO3` (centres undefined): the GI50 in [1], in assay [2], in assay [3], in assay [4], in assay [5] and in assay [6] was > 100 µM (inactive) throughout. Further, the GI50 in assay [7] is > 100 µM (inactive); in [8] it was > 100 µM (inactive); in assay [9], > 100 µM (inactive); in assay [10], 49 µM (inactive); in assay [11], 59.7 µM (inactive); in assay [12] it was > 100 µM (inactive). The GI50 in [13], in [14], in [15], in assay [16], in [18] and in [19] was > 100 µM (inactive) in each case. For the same compound, the GI50 in [20] was > 100 µM (inactive).
Regarding `FC(F)(F)c1nc(-c2ccccc2)oc1Sc1oc(-c2ccccc2)nc1C(F)(F)F`, the GI50 in assay [1] is 28.8 µM (inactive); in [2] it was > 100 µM (inactive); in assay [3] it was 58.7 µM (inactive); in assay [4], > 100 µM (inactive); in [5], > 100 µM (inactive); in [6] it was 56.9 µM (inactive). Moreover, the GI50 is > 100 µM (inactive) in [7]; > 100 µM (inactive) in [8]; > 100 µM (inactive) in assay [9]; 24.7 µM (inactive) in [10]; 34.4 µM (inactive) in assay [11]; 55.6 µM (inactive) in assay [12]. For the same compound, the GI50 in assay [14] is > 100 µM (inactive); in [15], 65.3 µM (inactive); in [16] it was > 100 µM (inactive); in assay [17] it was 87.3 µM (inactive); in assay [18], > 100 µM (inactive); in assay [19], > 100 µM (inactive). Besides, the GI50 in assay [20] is > 100 µM (inactive).
